Results: patent US7842808B2, “Anti-migraine spirocycles” (Bristol-Myers Squibb Company, priority 2002, dated 2010)

How the values were obtained:
[1] = molecular target: T1, CGRP receptor (SK-N-MC cell membranes) (Homo sapiens, UniProt O60894+Q16602); assay: CGRP Binding Assay ([125I]-CGRP radioligand binding, SK-N-MC homogenate); details: displacement of [125I]-CGRP, SK-N-MC homogenate; read-out: CGRP binding IC50
T1 construct: endogenous in cells; host or cells: SK-N-MC cells (membrane homogenate)
T1 sequence (Q16602 23-461): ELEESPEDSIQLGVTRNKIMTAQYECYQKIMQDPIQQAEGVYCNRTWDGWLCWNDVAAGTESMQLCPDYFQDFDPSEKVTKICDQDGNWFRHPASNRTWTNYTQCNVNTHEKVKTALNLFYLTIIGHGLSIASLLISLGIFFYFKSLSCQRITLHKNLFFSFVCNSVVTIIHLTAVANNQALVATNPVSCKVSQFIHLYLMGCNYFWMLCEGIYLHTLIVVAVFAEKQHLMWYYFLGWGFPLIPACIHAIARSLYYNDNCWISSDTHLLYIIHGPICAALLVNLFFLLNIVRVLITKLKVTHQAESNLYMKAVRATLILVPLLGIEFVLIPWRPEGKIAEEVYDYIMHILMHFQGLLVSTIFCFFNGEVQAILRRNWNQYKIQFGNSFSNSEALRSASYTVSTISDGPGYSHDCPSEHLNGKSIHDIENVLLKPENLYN
T1 sequence (O60894 27-148): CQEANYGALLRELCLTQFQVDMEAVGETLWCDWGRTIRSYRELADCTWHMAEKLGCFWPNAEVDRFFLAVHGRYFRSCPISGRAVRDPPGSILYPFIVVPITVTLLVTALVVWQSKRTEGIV

[2] = molecular target: T2, human CGRP receptor (SK-N-MC cells) (Homo sapiens, UniProt O60894+Q16602); assay: Cyclic AMP Assay, functional antagonism of CGRP-induced cyclic AMP formation; type: cell-based; details: SK-N-MC cells, 0.3 nM CGRP; read-out: cAMP Function IC50
T2 construct: SK-N-MC cells that endogenously express the human CGRP receptor; endogenous in cells; host or cells: SK-N-MC cells
T2 sequence (Q16602 23-461): as the sequence (Q16602 23-461) above
T2 sequence (O60894 27-148): as the sequence (O60894 27-148) above
Description: Functional Antagonism. Antagonism of the compounds of invention was determined by measuring the formation of cyclic AMP (adenosine 3′5′-cyclic monophosphate) in SK-N-MC cells that endogenously express the human CGRP receptor. […] For cyclic AMP measurements SK-N-MC cells were incubated with 0.3 nM CGRP alone or in the presence of various concentrations of the compounds of invention for 30 min at room temperature. […] Cyclic AMP was extracted using the lysis reagent and its concentration was determined by radioimmunoassay using RPA559 cAMP SPA Direct Screening Assay Kit (Amersham Pharmacia Biotech). IC50 values were calculated using Excel fit.

[3] = tested on: human cerebral vessels (CGRP-induced dilation); assay: Ex Vivo Human Cerebral Artery Assay, reversal of CGRP-induced relaxation; details: reversal of 1 nM hCGRP-induced relaxation, vessels pre-contracted with 10 mM KCl
Description: Rationale and Overview. To provided direct evidence of the ability for novel compounds to reverse CGRP-induced dilation in human cerebral vessels, an ex vivo assay was design. Briefly, isolated vessel rings were mounted in a tissue bath where vessels were pre-contracted with potassium chloride (KCl) and fully dilated with hCGRP, then this relaxation was reversed by the cumulative addition of CGRP-receptor antagonists (complete details follow).
Tissue Samples. Autopsy samples of human arteries were obtained from vendors (ABS Inc. or NDRI). All vessels were transported on ice-cold HEPES buffer (composition in mM: NaCl 130, KCl 4, KH2PO4 1.2, MgSO4 1.2, CaCl2 1.8, Glucose 6, NaHCO3 4, HEPES 10, EDTA 0.025). Upon receipt, the vessels were placed in cold Kreb's buffer (composition in mM: NaCl 118.4, KCl 4.7, KH2PO4 1.2, MgSO4 1.2, CaCl2 1.8, Glucose 10.1, NaHCO3 25) saturated with carbogen (5% CO2 and 95% oxygen).
Isolated Tissue Baths. The vessels were cleaned of connective tissues and cut into cylindrical segments of 4-5 mm in length. The vessels were then mounted in tissue baths between two stainless steel hooks; one of which is fixed and the other of which was connected to a force displacement transducer. The vessel tension was continuously recorded using a data acquisition system (Powerlab, ADInstruments, Mountain View, Calif.) connected to the transducer. The tissue baths containing Krebs buffer and mounted vessels were temperature (37° C.) and pH (7.4) controlled with continuous bubbling of carbogen. The artery segments were allowed to equilibrate for about 30-45 min until a stable resting tone was achieved. Prior to the assay, vessels were primed (conditioned) with 100 mM KCl and subsequently washed. The vessels were pre-contracted with 10 mM KCl and fully dilated with 1 nM hCGRP. Concentration-response curves to CGRP-receptor antagonists were performed by the cumulative addition of drugs in half log units in fully dilated vessels. At each concentration, the effects of the drugs were expressed as % reversal of CGRP-induced relaxation in each vessel. The actual assay and data analysis were performed for each vessel individually, fitting the concentration-response data to a four parameter logistic function by non-linear regression analysis, to estimate the EC50 values.

Row | SMILES | IC50 [1] [nM] | IC50 [2] [nM] | EC50 [3] [nM]
1 | O=C(NC(CN1CCc2[nH]ncc2C1)C(=O)N1CCC(N2CCCCC2)CC1)N1CCC(N2Cc3ccccc3NC2=O)CC1 (racemic) [Example 54, (±)-4-(2-Oxo-1,4-dihydro-2H-quinazolin-3-yl)-piperidine-1-carboxylic acid[2-[1,4′]bipiperidinyl-1′-yl-2-oxo-1-(1,4,6,7-tetrahydro-pyrazolo[4,3-c]pyridin-5-ylmethyl)-ethyl]-amide] | 10 to 100 | 100 to 1000 | < 10
2 | O=C(C[C@H](Nc1ccc2[nH]ccc2c1)C(=O)N1CCC(N2CCCCC2)CC1)N1CCC(N2Cc3ccccc3NC2=O)CC1 [Example 86, (L)-1-[1,4′]Bipiperidinyl-1′-yl-2-(1H-indol-5-ylamino)-4-[4-(2-oxo-1,4-dihydro-2H-quinazolin-3-yl)-piperidin-1-yl]-butane-1,4-dione] | 100 to 1000 | 10 to 100 | 100 to 1000
3 | Cc1cc(CC(CC(=O)N2CCC3(CC2)OC(=O)Nc2ccccc23)C(=O)N2CCC(N3CCCCC3)CC2)cc2cn[nH]c12 (racemic) [Example 68, (±)-1-[1,4′]Bipiperidinyl-1′-yl-2-(7-methyl-1H-indazol-5-ylmethyl)-4-[1′,2′-dihydro-2′-oxospiro-[4H-3′,1-benzoxazine-4,4′-piperidinyl]-butane-1,4-dione] | < 10 | < 10 | < 10
4 | O=C1Nc2ccccc2C2(CCN(C(=O)C[C@H](Cc3csc4ccccc34)C(=O)N3CCC(N4CCCCC4)CC3)CC2)O1 [Example 65] | < 10 | 10 to 100 | 10 to 100
5 | Cc1cc(CC(NC(=O)N2CCC(N3Cc4ccccc4NC3=O)CC2)C(=O)N2CCN(C)CC2)cc2cn[nH]c12 (racemic) [Example 19, (±)-4-(2-Oxo-1,4-dihydro-2H-quinazolin-3-yl)-piperidine-1-carboxylic acid[1-(7-methyl-1H-indazol-5-ylmethyl)-2-(4-methyl-piperazin-1-yl)-2-oxo-ethyl]-amide] | < 10 | < 10 | < 10
6 | Cc1cc(CC(NC(=O)N2CCC(N3Cc4ccccc4NC3=O)CC2)C(=O)N2CCCC2)cc2cn[nH]c12 (racemic) [Example 20, (±)-4-(2-Oxo-1,4-dihydro-2H-quinazolin-3-yl)-piperidine-1-carboxylic acid[1-(7-methyl-1H-indazol-5-ylmethyl)-2-oxo-2-pyrrolidin-1-yl-ethyl]-amide] | < 10 | < 10 | < 10
7 | Cc1cc(CC(CC(=O)N2CCC(N3Cc4ccccc4NC3=O)CC2)C(=O)N2CCC(C)CC2)cc2cn[nH]c12 (racemic) [Example 74, (±)-2-(7-Methyl-1H-indazol-5-ylmethyl)-1-(4-methyl-piperidin-1-yl)-4-[4-(2-oxo-1,4-dihydro-2H-quinazolin-3-yl)-piperidin-1-yl]-butane-1,4-dione] | < 10 | < 10 | < 10
8 | Cc1cc(CC(CC(=O)N2CCC(N3Cc4ccccc4NC3=O)CC2)C(=O)N(C)C)cc2cn[nH]c12 (racemic) [Example 72, (±)-N,N-Dimethyl-2-(7-methyl-1H-indazol-5-ylmethyl)-4-oxo-4-[4-(2-oxo-1,4-dihydro-2H-quinazolin-3-yl)-piperidin-1-yl]-butyramide] | < 10 | < 10 | < 10
9 | COC(=O)C(CC(=O)N1CCC(N2Cc3ccccc3NC2=O)CC1)Cc1cc(C)c2[nH]ncc2c1 (racemic) [Example 67, (±)-2-(7-Methyl-1H-indazol-5-ylmethyl)-4-oxo-4-[4-(2-oxo-1,4-dihydro-2H-quinazolin-3-yl)-piperidin-1-yl]-butyric acid methyl ester] | 10 to 100 | 100 to 1000 | 10 to 100
